Each block holds one compound with its values, some of them ahead of it.
Experiments:
Type in all cases: in vivo
Pansy plants [1] = assay: Pansy leaf transpiration rate (LI-1600 Steady State Porometer); settings: for Transpiration rate (% of control): Matrix Premium Rose, Table 16; for Transpiration inhibition: sufficient water
Procedure: (§1) Uniform plants were selected for the study. Prior to chemical treatment, plants were saturated with water and then drained for about two hours. A total of 20 mL chemical solution, which is equivalent to about 10% of the cell volume, was applied to each plant with 3 mL solution foliar applied to canopy and 17 mL solution drench applied to root zone. Unless specified, watering of plants was stopped after chemical treatment.
(§2) After chemical treatment, plants were arranged in a randomized complete block experimental design. The plants were rated daily for the extent of wilting on a scale from 1 (no wilting) to 4 (complete wilting) to generated a sales index rating. A rating of 2.5 was the point at which a plant was determined to be unmarketable and the previous day was recorded as the shelf life of that plant in days. Yellow leaf number was counted at 3 days after chemical treatment. Leaf transpiration rate was measured after treatment using a LI-1600 Steady State Porometer (LI-Cor, Lincoln, Nebr.). The transpiration rate of each treatment was calculated as the percentage of that of control at each day to reduce day-to-day variation caused by changes of environmental condition such as light intensity, humidity, and temperature.

Pansy plants [2] = assay: Pansy yellow leaf number (leaf yellowing)
Procedure: (§3) All studies were conducted in the greenhouse at the research farm of Valent BioSciences Corporation (Long Grove, Ill.). Pansy plants were obtained either from local retailers as mature plants, or plugs from wholesale nurseries. Plugs of Pansy plants were transplanted into an 18-cell flat filled with Promix BX (available from Premier Horticulture Inc. Quakertown, Pa.) and grown for about 30 days prior to treatment. During growing periods, plants received daily irrigation and weekly fertilizer (1 g/L all purpose fertilizer 20-20-20, The Scotts Company, Marysville, Ohio).
as §1
as §2, with “Yellow leaf number was counted at 3 days after chemical treatment.” left out

Pansy plants [3] = assay: Pansy shelf life under drought (daily wilting rating, sales index)
Procedure: as §3, §1, §2

Pansy plants [4] = assay: Plant elongation after gibberellin treatment; settings: 0.1 mg or 1 mg per plant; Delta Premium Pure White
Text: GA4/7 reduced the number of yellow leaves more than GA3.

Yellow leaf number (Pansy plants [2]; 0.1 mg, Matrix Orange, drought, 3 d after treatment, Table 1): 3
Yellow leaf number (Pansy plants [2]; 0.3 mg, Clear Sky Yellow, drought, 3 d after treatment, Table 8): 2.8
Yellow leaf number (Pansy plants [2]; 0.3 mg, Crown Azure Blue, drought, 3 d after treatment, Table 9): 4.8
Yellow leaf number (Pansy plants [2]; 0.3 mg, Matrix Orange, drought, 3 d after treatment, Table 1): 5
Yellow leaf number (Pansy plants [2]; 0.3 mg, Matrix Orange, drought, 3 d after treatment, Table 2): 9.0
Yellow leaf number (Pansy plants [2]; 0.3 mg, Matrix Yellow, drought, 3 d after treatment, Table 7): 9.7
Yellow leaf number (Pansy plants [2]; 1 mg, Matrix Orange, drought, 3 d after treatment, Table 1): 7
Yellow leaf number (Pansy plants [2]; 3 mg PBI-429, no water, Whispers White, 3 d after treatment, Table 15): 23.3
Yellow leaf number (Pansy plants [2]; 3 mg, Clear Sky Yellow, drought, 3 d after treatment, Table 8): 4.8
Yellow leaf number (Pansy plants [2]; 3 mg, Crown Azure Blue, drought, 3 d after treatment, Table 9): 7.7
Yellow leaf number (Pansy plants [2]; 3 mg, Matrix Orange, drought, 3 d after treatment, Table 1): 10
Yellow leaf number (Pansy plants [2]; 3 mg, Matrix Yellow, drought, 3 d after treatment, Table 7): 13.2
SMILES: C#CC1(C)CC(=O)C=C(C)C1(O)/C=C/C(C)=C\C(=O)OC (stereo not drawn) [PBI-429, 8′ acetylene-ABA methyl ester]
Transpiration rate (% of control) (Pansy plants [1]; 0.3 mg PBI-429, no water, day 1 after treatment): 34 % of control
Transpiration rate (% of control) (Pansy plants [1]; 0.3 mg PBI-429, no water, day 2 after treatment): 35 % of control
Transpiration rate (% of control) (Pansy plants [1]; 0.3 mg PBI-429, no water, day 3 after treatment): 26 % of control
Transpiration inhibition (Pansy plants [1]; 0.3 mg PBI-429, through 3 days after treatment): greater than 50%
Transpiration rate (% of control) (Pansy plants [1]; 0.3 mg PBI-429, watered, day 1 after treatment): 32 % of control
Transpiration rate (% of control) (Pansy plants [1]; 0.3 mg PBI-429, watered, day 2 after treatment): 33 % of control
Transpiration rate (% of control) (Pansy plants [1]; 0.3 mg PBI-429, watered, day 3 after treatment): 44 % of control
Transpiration rate (% of control) (Pansy plants [1]; 0.3 mg PBI-429, watered, day 4 after treatment): 68 % of control
Transpiration rate (% of control) (Pansy plants [1]; 0.3 mg PBI-429, watered, day 5 after treatment): 74 % of control
Transpiration rate (% of control) (Pansy plants [1]; 0.3 mg PBI-429, watered, day 7 after treatment): 81 % of control
Transpiration rate (% of control) (Pansy plants [1]; 0.3 mg PBI-429, watered, day 10 after treatment): 88 % of control
Transpiration rate (% of control) (Pansy plants [1]; 3 mg PBI-429, no water, day 1 after treatment): 23 % of control
Transpiration rate (% of control) (Pansy plants [1]; 3 mg PBI-429, no water, day 2 after treatment): 14 % of control
Transpiration rate (% of control) (Pansy plants [1]; 3 mg PBI-429, no water, day 3 after treatment): 9 % of control
Transpiration rate (% of control) (Pansy plants [1]; 3 mg PBI-429, no water, day 4 after treatment): 10 % of control
Transpiration rate (% of control) (Pansy plants [1]; 3 mg PBI-429, no water, day 5 after treatment): 18 % of control
Transpiration inhibition (Pansy plants [1]; 3 mg PBI-429, through 10 days after treatment): greater than 50%
Transpiration rate (% of control) (Pansy plants [1]; 3 mg PBI-429, watered, day 1 after treatment): 20 % of control
Transpiration rate (% of control) (Pansy plants [1]; 3 mg PBI-429, watered, day 2 after treatment): 15 % of control
Transpiration rate (% of control) (Pansy plants [1]; 3 mg PBI-429, watered, day 3 after treatment): 29 % of control
Transpiration rate (% of control) (Pansy plants [1]; 3 mg PBI-429, watered, day 4 after treatment): 28 % of control
Transpiration rate (% of control) (Pansy plants [1]; 3 mg PBI-429, watered, day 5 after treatment): 32 % of control
Transpiration rate (% of control) (Pansy plants [1]; 3 mg PBI-429, watered, day 7 after treatment): 44 % of control
Transpiration rate (% of control) (Pansy plants [1]; 3 mg PBI-429, watered, day 10 after treatment): 46 % of control
Shelf life (Pansy plants [3]; 0.1 mg, Matrix Orange, drought, Table 1): 5.5 days
Shelf life (Pansy plants [3]; 0.3 mg PBI-429, no water, Whispers White, Table 15): 3.8 days
Shelf life (Pansy plants [3]; 0.3 mg, Clear Sky Yellow, drought, Table 8): 6.5 days
Shelf life (Pansy plants [3]; 0.3 mg, Crown Azure Blue, drought, Table 9): 4.5 days
Shelf life (Pansy plants [3]; 0.3 mg, Matrix Orange, drought, Table 1): 5.8 days
Shelf life (Pansy plants [3]; 0.3 mg, Matrix Orange, drought, Table 2): 5.8 days
Shelf life (Pansy plants [3]; 0.3 mg, Matrix Yellow, drought, Table 7): 7.5 days
Shelf life (Pansy plants [3]; 1 mg, Matrix Orange, drought, Table 1): 7.0 days
Shelf life (Pansy plants [3]; 3 mg PBI-429, no water, Whispers White, Table 15): 7.2 days
Shelf life (Pansy plants [3]; 3 mg, Clear Sky Yellow, drought, Table 8): 8.7 days
Shelf life (Pansy plants [3]; 3 mg, Crown Azure Blue, drought, Table 9): 7.0 days
Shelf life (Pansy plants [3]; 3 mg, Matrix Orange, drought, Table 1): 8.3 days
Shelf life (Pansy plants [3]; 3 mg, Matrix Orange, drought, Table 2): 9.5 days
Shelf life (Pansy plants [3]; 3 mg, Matrix Yellow, drought, Table 7): 8.8 days

SMILES: C=C1C[C@]23C[C@@]1(O)CC[C@H]2[C@@]12C=C[C@H](O)[C@@](C)(C(=O)O1)[C@H]2[C@@H]3C(=O)O [GA3, gibberellin A3]
Yellow leaf number (Pansy plants [2]; 0.1 mg, Delta Premium Pure White, 3 days after treatment, Table 24): 1.3
Yellow leaf number (Pansy plants [2]; 0.1 mg, Delta Premium Pure White, 7 days after treatment, Table 24): 3.8
Yellow leaf number (Pansy plants [2]; 1 mg, Delta Premium Pure White, 3 days after treatment, Table 24): 1.2
Yellow leaf number (Pansy plants [2]; 1 mg, Delta Premium Pure White, 7 days after treatment, Table 24): 3.7
Shelf life (Pansy plants [3]; 0.1 mg, Delta Premium Pure White, Table 24): 4.3 days
Shelf life (Pansy plants [3]; 1 mg, Delta Premium Pure White, Table 24): 4.0 days
Effect on plant elongation (Pansy plants [4]): no apparent effect

— patent publication US20100022562A1, “Use of Plant Growth Regulators to Reduce Abscisic Acid Related Plant Leaf Yellowing” (priority 2008, published 2010)
